Laboratory results taken from publication PMC3317675 (International Journal of Molecular Sciences, 2012).

Columns and labels:
[1] = biological target: T1, mGAT1 (Mus musculus, UniProt P31648); test: [3H]GABA uptake inhibition, stable CHO cells; type: cell-based; design: gene Slc6a1; full-length ORF in pcDNA3; no tag mentioned
[2] = biological target: T2, mGAT2 (Mus musculus, UniProt P31649); test: [3H]GABA uptake inhibition, stable CHO cells; type: cell-based; design: gene Slc6a13; RIKEN FANTOM cDNA in pcDNA3; no tag mentioned
T2 sequence (P31649 1-602): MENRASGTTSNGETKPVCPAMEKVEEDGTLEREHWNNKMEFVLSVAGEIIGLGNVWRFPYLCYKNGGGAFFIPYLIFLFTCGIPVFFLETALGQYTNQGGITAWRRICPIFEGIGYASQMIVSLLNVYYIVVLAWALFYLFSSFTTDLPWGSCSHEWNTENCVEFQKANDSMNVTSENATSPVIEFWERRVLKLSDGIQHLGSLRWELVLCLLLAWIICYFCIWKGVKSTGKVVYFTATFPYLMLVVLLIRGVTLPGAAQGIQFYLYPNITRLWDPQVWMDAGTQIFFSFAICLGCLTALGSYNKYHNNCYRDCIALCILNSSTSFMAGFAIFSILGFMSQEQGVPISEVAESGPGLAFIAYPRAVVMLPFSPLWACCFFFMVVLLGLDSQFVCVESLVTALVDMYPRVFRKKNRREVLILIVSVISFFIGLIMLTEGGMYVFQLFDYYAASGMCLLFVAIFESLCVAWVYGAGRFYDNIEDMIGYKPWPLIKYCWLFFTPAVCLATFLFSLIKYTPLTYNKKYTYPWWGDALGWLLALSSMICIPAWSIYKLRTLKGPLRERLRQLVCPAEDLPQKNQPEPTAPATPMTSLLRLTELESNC

[3] = biological target: T3, mGAT3 (Mus musculus, UniProt P31650); test: [3H]GABA uptake inhibition, stable CHO cells; type: cell-based; design: gene Slc6a11; RIKEN FANTOM cDNA in pcDNA3; no tag mentioned
T3 sequence (P31650 1-627): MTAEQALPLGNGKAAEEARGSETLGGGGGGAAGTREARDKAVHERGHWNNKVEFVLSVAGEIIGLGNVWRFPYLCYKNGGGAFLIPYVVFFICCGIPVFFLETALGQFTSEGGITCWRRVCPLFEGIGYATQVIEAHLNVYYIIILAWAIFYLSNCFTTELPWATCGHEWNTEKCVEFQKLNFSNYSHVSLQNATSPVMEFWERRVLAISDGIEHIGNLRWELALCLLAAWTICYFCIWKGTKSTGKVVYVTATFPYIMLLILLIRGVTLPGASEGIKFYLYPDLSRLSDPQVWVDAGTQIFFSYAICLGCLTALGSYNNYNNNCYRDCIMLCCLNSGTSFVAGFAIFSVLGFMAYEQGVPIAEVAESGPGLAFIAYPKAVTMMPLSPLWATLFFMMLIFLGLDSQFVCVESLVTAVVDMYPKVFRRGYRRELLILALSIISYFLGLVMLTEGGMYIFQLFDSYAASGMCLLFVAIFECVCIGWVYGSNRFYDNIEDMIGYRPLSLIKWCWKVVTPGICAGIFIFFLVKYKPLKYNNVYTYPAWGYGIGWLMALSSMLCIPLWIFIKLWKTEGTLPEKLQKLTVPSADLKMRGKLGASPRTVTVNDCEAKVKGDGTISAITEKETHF

[4] = biological target: T1, mGAT1; test: cell-based; design: gene Slc6a1
Text: (§1) Those were designated CHO/mGAT1, CHO/mGAT2, CHO/mGAT3 and CHO/mBGT1. […] For uptake assays in cell lines stably expressing mouse GATs, CHO cells were transfected with cDNA using FuGENE6 transfection reagent according to the manufacturer’s directions, and subsequently cultured in the medium containing G418 to select positive clones.

[5] = biological target: T2, mGAT2; test: cell-based; design: gene Slc6a13
Text: as §1

[6] = biological target: T3, mGAT3; test: cell-based; design: gene Slc6a11
Text: as §1

[7] = biological target: T4, rSERT (Rattus norvegicus, UniProt P31652); test: [3H]5-HT uptake inhibition, stable CHO cells; type: cell-based
T4 construct: gene Slc6a4; previously cloned cDNA; no tag mentioned
T4 sequence (P31652 whole entry): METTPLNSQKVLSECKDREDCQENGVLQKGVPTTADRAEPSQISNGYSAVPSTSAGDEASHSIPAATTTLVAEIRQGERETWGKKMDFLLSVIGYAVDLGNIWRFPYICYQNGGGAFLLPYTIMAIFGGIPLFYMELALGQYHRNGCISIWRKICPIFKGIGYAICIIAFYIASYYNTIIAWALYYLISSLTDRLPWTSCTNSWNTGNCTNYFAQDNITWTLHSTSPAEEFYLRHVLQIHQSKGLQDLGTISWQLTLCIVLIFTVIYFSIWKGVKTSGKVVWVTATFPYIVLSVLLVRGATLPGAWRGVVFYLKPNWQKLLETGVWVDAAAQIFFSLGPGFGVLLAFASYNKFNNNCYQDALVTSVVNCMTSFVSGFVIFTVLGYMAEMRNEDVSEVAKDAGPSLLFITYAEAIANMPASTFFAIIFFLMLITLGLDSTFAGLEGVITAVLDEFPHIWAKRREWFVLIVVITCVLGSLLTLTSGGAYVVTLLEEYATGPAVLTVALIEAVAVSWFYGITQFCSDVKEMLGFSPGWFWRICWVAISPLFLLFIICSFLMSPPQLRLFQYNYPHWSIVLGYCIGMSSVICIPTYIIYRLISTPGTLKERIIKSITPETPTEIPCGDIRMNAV

Compound | IC50 [1] | IC50 [2] | IC50 [3] | IC50 [4] | IC50 [5] | IC50 [6] | IC50 [7]
C[N+](C)(C)CC(=O)O [Betaine] | – | – | – | > 10000 µM | > 10000 µM | > 10000 µM | –
CNCCCN1c2ccccc2CCc2ccccc21 [Desipramine] | 268 ± 36.7 µM | 123 µM | 80.3 µM | – | – | – | –
CN(C)CCC=C1c2ccccc2CCc2ccccc21 [Amitriptyline] | 101 ± 11.7 µM | 45.8 µM | 61.5 µM | – | – | – | –
CN(C)CCCN1c2ccccc2CCc2ccccc21 [Imipramine] | 223 ± 58.5 µM | 106 µM | 108 µM | – | – | – | –

More lines, now with the values ahead:

IC50 [1] | IC50 [2] | IC50 [3] | IC50 [4] | IC50 [5] | IC50 [6] | IC50 [7] | Compound
167 ± 22.1 µM | 77.2 µM | 113 µM | – | – | – | – | CNCCCC1c2ccccc2C=Cc2ccccc21 [Protriptyline]
136 ± 21.9 µM | 87.1 µM | 74.1 µM | – | – | – | – | CNCCC=C1c2ccccc2CCc2ccccc21 [Nortriptyline]
– | – | – | > 300 µM | 25 µM | 18 µM | – | NCCC(=O)O [β-Alanine]
181 ± 72.9 µM | 85.6 µM | 64.6 µM | – | – | – | 5.89 µM | CC(CN(C)C)CN1c2ccccc2CCc2ccccc21 (stereo not shown) [Trimipramine]
